Test results: patent publication US20240316017A1, “NOVEL PYRIDINE DERIVATIVE COMPOUND AS RON INHIBITOR” (LG CHEM, LTD., priority 2021, published 2024)

Tests used:
cMET = cMET (Homo sapiens, UniProt P08581); assay: Evaluation of inhibitory activity against MET (TR-FRET kinase assay); format: biochemical; settings: cMET protein, TK peptide substrate
Experimental: In addition, in order to measure the enzyme activity inhibition for cMET, the evaluation was performed in the same manner as the enzyme activity inhibition measurement experiment for RON.
(§1) Specifically, the compound was prepared to a concentration of 1 mM in 100% DMSO and was diluted 10 times in a stepwise manner through 3-fold dilution. The compound (2 ul) diluted in a stepwise manner was added to a 96-well-plate containing 48 ul of a 1× kinase reaction buffer (50 mM HEPES (pH 7.4), 0.05% BSA, 0.005% Tween-20, 1 mM DTT, 0.5 mM MnCl2, 20 mM MgCl2).
The cMET protein was diluted to a concentration of 263 nM in a cMET storage buffer (50 mM Tris-HCl (pH 7.5), 150 mM NaCl, 0.05% Brij35, 1 mM DTT, 10% Glycerol), and then diluted again to a concentration of 2 nM in a 1× kinase reaction buffer. As a substrate cocktail, a MET-specific substrate mixed solution (5 uM TK peptide, 10 mM ATP) was prepared at a concentration 2 times the final reaction concentration.
(§2) Thereafter, a 384-well-plate was prepared, and 2.5 μl of each of the diluted compounds of Examples was added to a corresponding well of experimental group wells, and 2.5 μl of a 4% DMSO solution was dispensed into high control wells and low control wells.
(§3) Thereafter, 2.5 μL of 2 nM cMET was dispensed into each of the high control wells and the experimental group wells, and 2.5 μL of the 1×kinase reaction buffer was added to the low control wells, and all the wells were centrifuged at room temperature for 40 seconds at 1,000 RPM, and then incubated at room temperature for 20-30 minutes. Then, 5 uL of the substrate cocktail (2×) was dispensed into each well, and all the wells were centrifuged at room temperature for 40 seconds at 1,000 RPM, and then incubated at room temperature for 60 minutes. Thereafter, 5 uL of 90 mM EDTA was added to each well to terminate the reaction, and all the wells were then incubated again at room temperature for 5 minutes. Thereafter, 5 uL of a 4× phosphotyrosine antibody (Perkin Elmer) containing europium was added to each well, and all the wells were then incubated at room temperature for 60 minutes. After the incubation, the 384-well-plate was read with the Vison plate reader. In this case, the excitation wavelength was 340 nm, and the emission wavelength was 620 nm and 665 nm. The IC50 value of each compound of Examples was derived using the GraphPd Prism7 program.

RON = RON (Homo sapiens, UniProt Q04912); assay: Evaluation of inhibitory activity against RON (TR-FRET kinase assay); format: biochemical; settings: RON protein, ULight-labeled Poly GT substrate
Experimental: In order to measure the inhibitory activity of each of the compounds of Examples against RON, the IC50 of each of the compounds was measured using Time-resolved fluorescence energy transfer (TR-FRET).
as §1, with “7.4), 0.01%” for “7.4), 0.05% BSA, 0.005%”, “Tween-20, 5” for “Tween-20, 1”, “mM Na3VO4, 2 mM EGTA, 10” for “mM MnCl2, 20”
The RON protein was diluted to a concentration of 49.3 nM in a RON storage buffer (50 mM Tris-HCl (pH 7.5), 150 mM NaCl, 0.5 mM EDTA, 0.02% Triton X-100), and then diluted again to a concentration of 0.4 nM in a 1×kinase reaction buffer. As a substrate cocktail, a RON-specific substrate mixed solution (40 uM ULight-labeled Poly GT, 100 nM ATP) was prepared at a concentration 2 times the final reaction concentration.
as §2
as §3, with “of 0.4” for “of 2”, “nM RON” for “nM cMET”, “the 1× kinase” for “the 1×kinase”, “of 30” for “of 90”

Sequence of cMET (P08581 25-1390): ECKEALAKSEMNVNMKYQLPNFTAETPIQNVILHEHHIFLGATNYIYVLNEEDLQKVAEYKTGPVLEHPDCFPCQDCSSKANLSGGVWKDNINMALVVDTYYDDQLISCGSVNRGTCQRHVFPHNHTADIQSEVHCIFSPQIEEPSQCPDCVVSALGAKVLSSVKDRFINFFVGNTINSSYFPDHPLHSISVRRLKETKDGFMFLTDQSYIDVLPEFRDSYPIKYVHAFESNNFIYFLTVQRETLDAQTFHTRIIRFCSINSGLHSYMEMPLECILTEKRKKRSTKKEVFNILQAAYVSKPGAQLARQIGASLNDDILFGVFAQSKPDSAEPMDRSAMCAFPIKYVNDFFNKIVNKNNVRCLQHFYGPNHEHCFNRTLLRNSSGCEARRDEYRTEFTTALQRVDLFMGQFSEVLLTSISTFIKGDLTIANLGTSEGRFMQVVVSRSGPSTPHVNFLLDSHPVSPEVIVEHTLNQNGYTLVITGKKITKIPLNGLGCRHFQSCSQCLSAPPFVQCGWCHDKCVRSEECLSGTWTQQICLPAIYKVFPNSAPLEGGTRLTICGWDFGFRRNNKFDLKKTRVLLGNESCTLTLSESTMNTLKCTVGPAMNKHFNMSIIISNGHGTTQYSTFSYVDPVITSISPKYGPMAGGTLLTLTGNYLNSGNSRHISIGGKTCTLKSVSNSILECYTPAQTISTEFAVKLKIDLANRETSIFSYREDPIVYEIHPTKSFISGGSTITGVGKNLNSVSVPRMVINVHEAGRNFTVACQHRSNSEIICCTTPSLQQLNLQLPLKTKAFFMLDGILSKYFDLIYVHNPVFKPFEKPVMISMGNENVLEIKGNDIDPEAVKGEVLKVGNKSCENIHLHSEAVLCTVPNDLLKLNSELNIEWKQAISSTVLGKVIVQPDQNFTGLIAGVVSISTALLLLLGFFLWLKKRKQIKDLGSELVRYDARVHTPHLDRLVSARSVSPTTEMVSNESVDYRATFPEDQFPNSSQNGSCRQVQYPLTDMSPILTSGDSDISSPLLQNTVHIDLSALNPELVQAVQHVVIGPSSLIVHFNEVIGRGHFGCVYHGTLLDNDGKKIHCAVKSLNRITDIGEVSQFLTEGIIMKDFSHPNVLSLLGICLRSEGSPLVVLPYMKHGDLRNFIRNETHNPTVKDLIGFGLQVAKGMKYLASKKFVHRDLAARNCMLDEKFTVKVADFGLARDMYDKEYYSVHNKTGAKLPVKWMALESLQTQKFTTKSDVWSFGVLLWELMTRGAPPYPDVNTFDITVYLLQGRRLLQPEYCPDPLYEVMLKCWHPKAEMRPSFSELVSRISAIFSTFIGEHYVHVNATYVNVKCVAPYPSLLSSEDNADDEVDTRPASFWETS
Sequence of RON (Q04912 25-1400, species assumed): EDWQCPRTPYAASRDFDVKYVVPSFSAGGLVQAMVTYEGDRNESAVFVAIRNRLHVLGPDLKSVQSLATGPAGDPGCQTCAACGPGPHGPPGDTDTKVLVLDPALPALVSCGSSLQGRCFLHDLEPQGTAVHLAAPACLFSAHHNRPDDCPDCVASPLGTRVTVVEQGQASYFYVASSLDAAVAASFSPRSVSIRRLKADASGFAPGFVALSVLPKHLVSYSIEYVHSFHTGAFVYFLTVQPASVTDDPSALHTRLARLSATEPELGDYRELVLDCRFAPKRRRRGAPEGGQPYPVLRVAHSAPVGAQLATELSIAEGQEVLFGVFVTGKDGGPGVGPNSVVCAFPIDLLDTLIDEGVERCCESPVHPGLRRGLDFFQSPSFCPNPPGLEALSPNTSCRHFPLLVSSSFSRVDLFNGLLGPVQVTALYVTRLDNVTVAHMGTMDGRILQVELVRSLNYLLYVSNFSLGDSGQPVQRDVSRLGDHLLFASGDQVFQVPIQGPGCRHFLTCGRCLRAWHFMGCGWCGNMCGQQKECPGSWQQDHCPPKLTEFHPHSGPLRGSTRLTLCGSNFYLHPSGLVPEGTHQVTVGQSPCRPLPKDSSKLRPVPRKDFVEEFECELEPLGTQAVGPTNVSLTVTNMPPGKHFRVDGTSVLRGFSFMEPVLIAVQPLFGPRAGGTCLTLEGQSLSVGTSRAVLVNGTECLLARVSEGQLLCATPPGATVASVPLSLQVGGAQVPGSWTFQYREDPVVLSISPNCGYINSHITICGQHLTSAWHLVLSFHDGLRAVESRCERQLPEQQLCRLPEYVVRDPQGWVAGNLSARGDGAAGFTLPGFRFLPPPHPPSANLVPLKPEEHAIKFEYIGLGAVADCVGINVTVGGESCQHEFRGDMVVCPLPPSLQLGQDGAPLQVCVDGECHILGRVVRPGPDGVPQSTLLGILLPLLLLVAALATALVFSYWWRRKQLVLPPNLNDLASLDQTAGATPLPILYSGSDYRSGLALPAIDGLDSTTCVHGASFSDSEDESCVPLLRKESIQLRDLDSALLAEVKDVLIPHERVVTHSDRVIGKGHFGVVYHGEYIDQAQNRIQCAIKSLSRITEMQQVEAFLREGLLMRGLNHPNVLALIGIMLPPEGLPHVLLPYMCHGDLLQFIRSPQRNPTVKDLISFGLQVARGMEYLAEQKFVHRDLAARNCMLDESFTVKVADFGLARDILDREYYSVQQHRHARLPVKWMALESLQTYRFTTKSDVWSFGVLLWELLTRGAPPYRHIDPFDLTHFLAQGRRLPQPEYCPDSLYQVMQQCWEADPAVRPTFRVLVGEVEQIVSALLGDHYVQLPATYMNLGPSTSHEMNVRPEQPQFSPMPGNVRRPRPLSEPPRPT

Structure (SMILES)	IC50 (cMET)	IC50 (RON)
C=CC(=O)N(C(=O)C=C)c1nccc(Oc2ccc(NC(=O)c3ncn(-c4ccccc4)c3C(F)(F)F)cc2F)c1Cl [Example 22]	> 5000 nM	50 to 500 nM
CCOC(=O)Nc1c(Oc2ccc(NC(=O)c3cnn(-c4ccccc4)c3C(F)(F)F)cc2F)ccnc1N [Example 34, Ethyl(2-amino-4-(2-fluoro-4-(1-phenyl-5-(trifluoromethyl)-1H-pyrazole-4-carboxamido)phenoxy)pyridin-3-yl)carbamate]	> 5000 nM	50 to 500 nM
Nc1ncnc(Oc2ccc(NC(=O)c3cnn(-c4ccccc4)c3)cc2F)c1Cl [Example 57, N-(4-((6-amino-5-chloro-pyrimidin-4-yl)oxy)-3-fluorophenyl)-1-phenyl-1H-pyrazole-4-carboxamide]	> 5000 nM	> 5000 nM
Nc1nccc(Oc2ccc(NC(=O)c3ccc(-c4ccccc4)s3)cc2F)c1Cl [Example 33, N-(4-((2-amino-3-chloropyridin-4-yl)oxy)-3-fluorophenyl)-5-phenylthiophene-2-carboxamide]	> 5000 nM	50 to 500 nM
Cc1nc(-c2ccccc2)sc1C(=O)Nc1ccc(Oc2ncnc(N)c2Cl)c(F)c1 [Example 61, N-[4-(6-amino-5-chloro-pyrimidin-4-yl)oxy-3-fluorophenyl]-4-methyl-2-phenyl-thiazole-5-carboxamide]	> 5000 nM	500 to 5000 nM
Nc1nccc(Oc2ccc(NC(=O)c3cnn(-c4ccccc4)c3C(F)(F)F)c(F)c2)c1Cl [Example 45, N-(4-((2-amino-3-chloropyridin-4-yl)oxy)-2-fluorophenyl)-1-phenyl-5-(trifluoromethyl)-1H-pyrazole-4-carboxamide]	> 5000 nM	50 to 500 nM
Nc1ncnc(Oc2ccc(NC(=O)c3cn(-c4ccccc4)nn3)cc2F)c1Cl [Example 54, N-[4-(6-amino-5-chloro-pyrimidin-4-yl)oxy-3-fluorophenyl]-1-phenyl-triazole-4-carboxamide]	> 5000 nM	> 5000 nM
Nc1nccc(Oc2ccc(NC(=O)c3cnn(-c4ccc(F)cc4)c3C(F)(F)F)cc2F)c1Cl [Example 11, N-(4-((2-amino-3-chloropyridin-4-yl)oxy)-3-fluorophenyl)-1-(4-fluorophenyl)-5-(trifluoromethyl)-1H-pyrazole-4-carboxamide]	> 5000 nM	500 to 5000 nM
Cc1nn(-c2ccccc2)c(C)c1C(=O)Nc1ccc(Oc2ncnc(N)c2Cl)c(F)c1 [Example 48, N-(4-((6-amino-5-chloro-pyrimidin-4-yl)oxy)-3-fluorophenyl)-3,5-dimethyl-1-phenyl-1H-pyrazole-4-carboxamide]	> 5000 nM	50 to 500 nM
Cc1c(C(=O)Nc2ccc(Oc3ncnc(N)c3Cl)c(F)c2)nnn1-c1ccccc1F [Example 56, N-[4-(6-amino-5-chloro-pyrimidin-4-yl)oxy-3-fluorophenyl]-1-(2-fluorophenyl)-5-methyl-triazole-4-carboxamide]	> 5000 nM	50 to 500 nM
Nc1nccc(Oc2ccc(NC(=O)c3ncn(-c4ccccc4)c3C(F)(F)F)cc2F)c1N [Example 27]	> 5000 nM	50 to 500 nM
Nc1ncnc(Oc2ccc(NC(=O)c3cnn(C4CCCOC4)c3C(F)(F)F)cc2F)c1Cl (stereo not shown) [Example 50]	> 5000 nM	500 to 5000 nM
CN1CCCC(n2ncc(C(=O)Nc3ccc(Oc4ncnc(N)c4Cl)c(F)c3)c2C(F)(F)F)C1 (stereo not shown) [Example 60, N-[4-(6-amino-5-chloro-pyrimidin-4-yl)oxy-3-fluorophenyl]-1-(1-methyl-3-piperidyl)-5-(trifluoromethyl)pyrazole-4-carboxamide]	> 5000 nM	500 to 5000 nM
Cc1c(C(=O)Nc2ccc(Oc3ncnc(N)c3Cl)c(F)c2)nnn1-c1ccccc1 [Example 55, N-[4-(6-amino-5-chloro-pyrimidin-4-yl)oxy-3-fluorophenyl]-5-methyl-1-phenyl-triazole-4-carboxamide]	> 5000 nM	> 5000 nM

The next lines start with the values.

IC50 (cMET)	IC50 (RON)	Structure (SMILES)
500 to 5000 nM	50 to 500 nM	Nc1ncnc(Oc2ccc(NC(=O)c3cnn(-c4ccccc4F)c3C(F)(F)F)cc2F)c1Cl [Example 52, N-[4-(6-amino-5-chloro-pyrimidin-4-yl)oxy-3-fluorophenyl]-1-(2-fluorophenyl)-5-(trifluoromethyl)pyrazole-4-carboxamide]
> 5000 nM	50 to 500 nM	O=C(Nc1ccc(Oc2ccnc(NC(=O)C3CC3)c2)c(F)c1)c1ncn(-c2ccccc2)c1C(F)(F)F [Example 26, N-(4-((2-cyclopropanecarboxamido)pyridin-4-yl)oxy-3-fluorophenyl)-1-phenyl-5-(trifluoromethyl)-1H-imidazole-4-carboxamide]
> 5000 nM	500 to 5000 nM	CC(C)(C)n1ncc(C(=O)Nc2ccc(Oc3ncnc(N)c3Cl)c(F)c2)c1C(F)(F)F [Example 58, N-[4-(6-amino-5-chloro-pyrimidin-4-yl)oxy-3-fluorophenyl]-1-tert-butyl-5-(trifluoromethyl)pyrazole-4-carboxamide]
500 to 5000 nM	< 50 nM	Nc1nccc(Oc2ccc(NC(=O)c3cnn(-c4c(F)cccc4F)c3C(F)(F)F)cc2F)c1Cl [Example 37, N-(4-((2-amino-3-chloropyridin-4-yl)oxy)-3-fluorophenyl)-1-(2,6-difluorophenyl)-5-(trifluoromethyl)-1H-pyrazole-4-carboxamide]
500 to 5000 nM	50 to 500 nM	Nc1nccc(Oc2ccc(NC(=O)c3cnn(-c4ccccc4F)c3C(F)(F)F)cc2F)c1Cl [Example 12, N-(4-((2-amino-3-chloropyridin-4-yl)oxy)-3-fluorophenyl)-1-(2-fluorophenyl)-5-(trifluoromethyl)-1H-pyrazole-4-carboxamide]
500 to 5000 nM	50 to 500 nM	Cc1c(C(=O)Nc2ccc(Oc3ccnc(N)c3Cl)c(F)c2)nnn1-c1ccccc1F [Example 42, N-(4-((2-amino-3-chloropyridin-4-yl)oxy)-3-fluorophenyl)-1-(2-fluorophenyl)-5-methyl-1H-1,2,3-triazole-4-carboxamide]
500 to 5000 nM	500 to 5000 nM	Nc1nccc(Oc2ccc(NC(=O)c3ccn(-c4ccccc4)n3)cc2F)c1Cl [Example 39, N-(4-((2-amino-3-chloropyridin-4-yl)oxy)-3-fluorophenyl)-1-phenyl-1H-pyrazole-3-carboxamide]
500 to 5000 nM	500 to 5000 nM	Nc1nccc(Oc2ccc(NC(=O)c3cnn(Cc4ccccc4)c3C(F)(F)F)cc2F)c1Cl [Example 13, N-(4-((2-amino-3-chloropyridin-4-yl)oxy)-3-fluorophenyl)-1-benzyl-5-(trifluoromethyl)-1H-pyrazole-4-carboxamide]
500 to 5000 nM	50 to 500 nM	CC(C)(C)n1ncc(C(=O)Nc2ccc(Oc3ccnc(N)c3Cl)c(F)c2)c1C(F)(F)F [Example 17, N-(4-((2-amino-3-chloropyridin-4-yl)oxy)-3-fluorophenyl)-1-(tert-butyl)-5-(trifluoromethyl)-1H-pyrazole-4-carboxamide]
